Assay results as given in US20230104074A1, “BORTEZOMIB COMPOSITIONS” (MAIA Pharmaceuticals, Inc., priority 2021, published 2023).

Key:
[1] = Formulation attempts at 2.5 mg/mL with low concentrations of benzyl alcohol and other non-aqueous solvents; type: physicochemical
Experimental: Initial formulation experiments with low concentrations of various non-aqueous solvents were conducted targeting a bortezomib concentration of 2.5 mg/mL. Attempts to solubilize bortezomib were conducted using low concentrations of benzyl alcohol (2% v/v), or dimethyl sulfoxide (5% v/v), or a combination of these solvents. […] For these formulations, the non-aqueous solvent was added to bortezomib to dissolve it, followed by addition of water to the bortezomib-solvent mixture.

[2] = DMSO in water formulations: dissolution, physical stability, effect of pH on chemical stability; type: physicochemical; details: 1 mg/mL, 1% (v/v) DMSO in water, pH 5.5
Experimental: Various concentrations of DMSO were explored as the non-aqueous component of the formulation (2% v/v to 5% v/v in water). Bortezomib was first completely dissolved in the batch volume of DMSO to form a concentrated “premix” solution prior to making up the batch to the target concentration (2.5 mg/mL) with water. This was done to facilitate the subsequent dissolution of bortezomib in the aqueous component. The pH values of the formulations were all approximately 7.
The effect of pH on bortezomib formulations using a low concentration of DMSO in water (4.5% v/v DMSO for the 2.5 mg/mL strength and 1% v/v DMSO for the 1 mg/mL strength) was then assessed. In each case, the bortezomib was first fully dissolved in the batch quantity of DMSO to form a concentrated premix solution, which was then added to water, and the pH adjusted with sodium hydroxide and/or hydrochloric acid to pH ranging from 4 to 8.5. […] Because oxidative degradation is a significant degradation pathway for bortezomib, filled vials were overlayed with nitrogen. These batches were placed on stability at accelerated (25° C.) and long-term storage conditions (2-8° C.). […]

## CC(C)C[C@H](NC(=O)[C@H](Cc1ccccc1)NC(=O)c1cnccn1)B(O)O [Bortezomib, [(1R)-3-methyl-1-[[(2S)-1-oxo-3-phenyl-2-[(pyrazinylcarbonyl)amino]propyl]amino]butyl] boronic acid]
[1]; heating up to 70° C., precipitated bortezomib not dissolved
  Appearance on heating the solution: a pink color formed indicating degradation of the active
[1]; target 2.5 mg/mL, benzyl alcohol (2% v/v), DMSO (5% v/v) or combination, mixing >3 hours
  Dissolution on addition of water to bortezomib-solvent mixture: precipitated after addition of water
[2]
  Total Impurities after 2 months at 25° C. (%): 0.52%
